The values that follow come from patent publication US20240207261A1, “METHODS FOR TREATING SMALL CELL LUNG CANCER AND OTHER NEUR[…]” (BOARD OF REGENTS, THE UNIVERSITY OF TEXAS SYSTEM, priority 2021, published 2024).

The term IC50 denotes the concentration that inhibits the measured activity by half.

Several values for one entry are separate records, joined by “and”; a condition that tells them apart may be missing. Identical values can stand only once. Like-named read-outs stand apart in the source and are kept apart here.

One series has as its system SCLC cell lines. Briefly: 96 hr proliferation assay, SCLC cell line panel (Example 1). It counts as cell-based, human and mouse. The conditions noted are these: for IC50: 12 human-derived and 3 mouse model-derived SCLC cell lines. As for the experimental part: In this preclinical study, the inventors investigated the therapeutic efficacy of lurbinectedin in large number of profiled SCLC cell lines representing the four SCLC subtypes (A, N, P and I) to identify candidate markers of drug sensitivity and resistance.
(§1) A 12 SCLC cell line panel representing SCLC-A, N, P and I subtypes, developed at MD Anderson Cancer Center, was screened against lurbinectedin in 96 hr proliferation assays (FIG. 2). Western Blotting: Three SCLC cell lines were treated with 1 nM of lurbinectedin for 24 and 48h and then subjected for protein isolation and Western blotting for pChK1, pRPA32, TH2AX.

For the next series, the system named is human SCLC cell lines. Briefly: Cell proliferation assay (Cell Titer Glo), panel of 21 human SCLC cell lines. It counts as cell-based. The following applies: for IC50: 21 human SCLC cell lines. As for the experimental part:
Human SCLC cell lines (21 cell lines) were purchased from ATCC. Cell lines were tested and authenticated by short tandem repeat profiling (DNA fingerprinting) and not cultured for greater than 6-months and were routinely tested for Mycoplasma contamination. Cell lines were cultured in either RPMI or HITES medium with 10% fetal bovine serum and 1% pen-strep, at 37° C. in a humidified chamber with 5% C02.
Cells were seeded in 96-well plates at 2,000 cells per well in triplicate for each cell line. After 24 hours, the cells in each well were treated with a lurbinectedin or with vehicle control. Four days later, proliferation was assayed by Cell Titer Glo (Promega, Fitchburg, WI). For single drug treatments, median inhibitory concentration (IC50) values were estimated by the Drexplorer software using date from duplicate experiments (14). For drug combinations, the area under the curve (AUC) of the observed (or experimental) effect of the combination was compared to the predicted additive effect. Data was subsequently presented as a ratio of the experimental effect relative to the predicted additive effect based on the Bliss Independence model, as previously reported (15). Using 10% above or below the predicted additive effect as a cut-off, the inventors then assigned the following groups: Observed/predicted<−0.1=greater than additive; […]; Observed/predicted <0.1 and >−0.1=additive.
Differences in IC50 values between subgroups were tested using ANOVA. Differences between SLFN11 high and low groups, defined using the bi-modality index (16), were tested using an un-paired t-test. Spearman rank correlation was used to assess the association between IC50 values and RPPA protein markers, The Benjamini & Hochberg (1995) method (17) was used to control false discovery rate (FDR). RPPA generates a quantitative measurement of expression of over 200 total and phosphorylated proteins, these values can be correlated to other variables such as IC50 values, and be compared between biomarker defined groups using standard statistical techniques. All analyses were performed using the R software.

For the next series, the system named is DMS79 and H209 cells. Briefly: Proliferation assay after siRNA knockdown of SLFN11. It counts as cell-based, human. The conditions noted are these: DMS79 and H209, versus parental and scrambled siRNA controls. As for the experimental part:
For SLFN11 gene silencing, pooled small interfering RNAs (siRNAs) targeting SLFN11 (L-016764-01-0005) or its corresponding scramble control (D-001810-10-05; GE Dharmacon) were transfected into DMS79 and H209 cells for 72 hours using Lipofectamine 2000 (Invitrogen) according to the manufacturer's protocol. The cells were then plated for 96h proliferation assays. Knock down efficiency was validated by Western blotting.

The next series relates to DMS79 xenografts. Briefly: Flank xenograft efficacy study, SLFN11 high. It counts as in vivo, mouse. The conditions noted are these: 0.1 mg/kg i.v. once per week. As for the experimental part: (§2) For the […] mouse model, 6-week-old female athymic nude mice (Envigo) were used. Animals were maintained in accordance with the Institutional Animal Care and Use Committee (IACUC) of The University of Texas MD Anderson Cancer Center and the NIH Guidelines for the Care and Use of Laboratory Animals. Experiments were performed under protocol: 00001191-RN03.
(§3) High SLFN11 protein expressing SCLC cell line DMS79 and low SLFN11 protein expressing cell line H865 were used for generation of xenografts. For subcutaneous injections, 1×10^6 SCLC cells were injected into one flank of each mouse with PBS: Matrigel (1:1, BD Biosciences). At an average tumor volume of 100 mm^3, mice were randomly allocated to three groups (n=5). Mice received either Vehicle (0.9% saline), lurbinectedin (0.1 mg/kg i.v. once per week), or cisplatin (6 mg/kg i.p. once per week). Tumor volumes were measured every other day using digital calipers.
(§4) Differences in IC50 values between subgroups were tested using ANOVA. Differences between SLFN11 high and low groups, defined using the bi-modality index were tested using an un-paired t-test. Spearman rank correlation was used to assess the association between IC50 values and RPPA protein markers, The Benjamini & Hochberg (1995) method was used to control false discovery rate (FDR). […]

The next series has as its system H865 xenografts. Briefly: Flank xenograft efficacy study, SLFN11 low. The conditions noted are these: H865, lower SLFN11; 0.1 mg/kg i.v. once per week. It counts as in vivo, mouse. How it is done:
as §2, §3, §4

Series [1] concerns pChK1, pRPA32, TH2AX in SCLC cell lines. The series can be described thus: Western blot of DNA damage markers (Example 1). It counts as cell-based. The following applies: 1 nM for 24 or 48 hours, sensitive cell lines. As for the experimental part: as §1
(A western blot detects proteins with antibodies after separation by electrophoresis.)

The subject of series [2] is phospho CHK1(S345), phospho RPA32(S4/S8), phospho TH2AX in SCLC cells. Briefly: Western blot of replication stress and DNA damage markers (Example 2). It counts as cell-based, human. The conditions noted are these: 0.9 nM, 24 and 48h, versus DMSO, all four subtypes. How it is done:
(§5) Protein lysate were isolated from SCLC cells treated with 0.9 nM lurbinectedin or DMSO for 24 and 48h. Nitrocellulose membranes were incubated with primary antibodies (1:1000) for Human SLFN11 (Santa Cruz Biotechnology), phospho-(S345) CHK1 Cell Signaling Technologies (CST), phospho-(S4/S8) RPA32 (Bethyl laboratories), phospho-(S139) TH2AX (CST), cleaved caspase-3 (CST), phospho-(S366) STING (SAB Biotech), cGAS (CST), PD-L1(CST), GAPDH (Santa Cruz Biotechnology) and Vinculin (Sigma-Aldrich) overnight. Secondary anti-goat, anti-mouse (Santa Cruz Biotechnology) and anti-rabbit HRP linked antibodies (CST) were used and detected using the Chemidoc imaging system, image captured with Image Studio Version 3.1 software (BioRad).
Based on its mechanism of action, the inventors predicted that lurbinectedin would lead to increased replication stress and DNA damage in SCLC models. To test this, SCLC cells from all four subtypes were treated with lurbinectedin (0.9 nM/L) for 24 and 48h and markers of DNA damage and replication stress were assayed by Western blot.

The subject of series [3] is cGAS, phospho STING, PD-L1 in SCLC cells. The series can be described thus: Western blot of cGAS-STING pathway and PD-L1. It counts as cell-based, human. The following applies: 24 and 48h. How it is done: as §5
The test system of a further series is SLFN11. The series can be described thus: Western blot of SLFN11 expression after treatment. It counts as cell-based, human. How it is done: as §5
The next series deals with metastatic SCLC. The following applies: 37 of 102 patients; 95% CI 26.2-45.2; cited from earlier work.
The conditions of series [4]: clinical testing; cited from earlier work.

On to `COc1ccc2[nH]c3c(c2c1)CCN[C@]31CS[C@@H]2c3c(OC(C)=O)c(C)c4c(c3[C@H](COC1=O)N1[C@@H]2[C@H]2c3c(cc(C)c(OC)c3O)C[C@@H]([C@@H]1O)N2C)OCO4` [lurbinectedin, Lurbinectedin], for which the IC50 in the series on SCLC cell lines (read-out: IC50 range) is 80 to 1840 pM; in the series with SCLC cell lines (read-out: median IC50), 520 pM; with human SCLC cell lines (read-out: IC50 range), 60 to 1830 pM; in the series on human SCLC cell lines (read-out: median IC50), 460 pM. The “IC50 of SLFN11-high versus SLFN11-low SCLC cells” value in the series with SCLC cell lines (p=0.0035 by t-test) is “lower IC50 than SLFN11-low cells”. In the series with SCLC cell lines (subtypes A, N, P and I), the “subtype specific difference in sensitivity” value was “no subtype specific difference”. Moreover, the “difference in in vitro activity between subtypes” value in the series with human SCLC cell lines (SCLC-A, SCLC-N, SCLC-P, SCLC-I) is reported as “no significant difference”. Further, the “fold change (FC) of IC50 between SLFN11 high and low cell lines” value in the series with human SCLC cell lines (bimodal separation of SLFN11 by RPPA) is 3.26 and 3.2. Also, the “sensitivity after SLFN11 knockdown” value with DMS79 and H209 cells is “reduced sensitivity”. Besides, the “tumor growth versus vehicle” value in the series on DMS79 xenografts is on record as “significantly reduced tumor growth”. The sensitivity of xenografts entry in the series on H865 xenografts was “significantly less sensitive”. The “markers of DNA damage (TH2AX, ChK1, RPA32)” value in series [1] is recorded as “increased markers of DNA damage”. Moreover, the “markers of replication stress phospho CHK1(S345) and phospho RPA32(S4/S8)” value in [2] is on record as “increases in markers of replication stress”. Also, in series [3], the “phospho STING and PD-L1” value is “only observed in cell lines from the SCLC-P and SCLC-I subtypes”. The “protein levels of cGAS” value in series [3] (versus DMSO, all cell lines tested) was “induced an increase”. Besides, the “change in SLFN11 levels” value with SLFN11 (DMS-79) is given as “minimal decrease”; in the series on SLFN11 (H1048), “undetectable level”. Also, the “overall response by investigator assessment” value in the series with metastatic SCLC is 35.2%. Further, the peak plasma concentration in series [4] is 148.2-153.8 ng/mL and 188.8-196.0 nM.
